Measured values published in paper PMC9289467, “A Novel Multifunctional 5,6-Dimethoxy-Indanone-Chalcone-Carbamate Hybrids Alleviates Cognitive Decline in Alzheimer’s Disease by Dual Inhibition of Acetylcholinesterase and Inflammation” (Frontiers in Aging Neuroscience, 2022).

Assays:
Aβ40 and Aβ42 = type: in vivo, APP/PS1 mice; conditions: cortex and hippocampus; AP5 40 mg/kg once daily 5 months
Procedure: (§1) APP/PS1 mice of ages 6 months were randomly divided into vehicle (APP/PS1, n = 10) and treatment groups (AP5, n = 10), which were intragastrically administered with AP5 (40 mg/kg) once daily for consecutive 5 months. AP5 was dissolved in distilled water containing 1% sodium carboxymethyl cellulose.
(§2) For detecting the pathological soluble or insoluble Aβ in mice, sequential extractions were performed as follows: the half of right hippocampus and cortex from three groups were homogenized in TBS solution containing 5 mM EDTA, phosphatase inhibitor (P1050, Beyotime, Shanghai, China), and protease inhibitor cocktail (P1010, Beyotime) followed by centrifugation at 25,000g at 4°C for 1 h. The supernatant was collected as a TBS fraction and the resulting pellet was solubilized in 70% formic acid (FA), sonicated until the lysis buffer was clear, followed by centrifugation at 25,000g at 4°C for 1 h. The supernatant was collected as the FA fraction and neutralized (1:20) in a neutralization buffer (1 M tris base, 0.5 M Na2HPO4, 0.05% NaN3). Human Aβ40 and Aβ42 were determined by ELISA kits (E-EL-H0452c and E-EL-H0453c, Elabscience, Wuhan, China) in accordance with the manufacturer’s instructions. In addition, the levels of IL-1β (88-7013-88, Invitrogen), IL-6 (EK206HS-96, Multi sciences, HangZhou, China), and TNF-α (88-7324-88, Invitrogen) in TBS fraction were also determined by ELISA.

Iba1+ microglia = experiment: Iba1 immunohistochemistry, microglia morphology, APP/PS1 mice; type: in vivo; conditions: AP5 40 mg/kg once daily 5 months
Procedure: as §1
The fixed hemibrains were paraffin-embedded and sectioned in the coronal plane. The slices were deparaffinized with xylene and rehydrated by a series of gradient alcohols. Antigen retrieval through microwave boiling was performed with 10 mM sodium citrate solution at pH 6.0. The slices were cooled down to room temperature and then rinsed in PBS solution. Then the slices were incubated in 10% goat serum blocking solution for 1 h followed by primary antibodies overnight at 4°C. The next day, the slides were labeled with biotinylated or fluorescent secondary antibodies. Slices were washed three times with PBS before being mounted. Images were captured using a SpinSR10 scanner (Olympus, Tokyo, Japan). […]
After deparaffinization and antigen retrieval, the sections were incubated with 0.3% hydrogen peroxide (H2O2) to inhibit endogenous peroxidase activity for 20 min and blocked by goat serum for 30 min at37°C. Slides were subsequently incubated overnight with specific primary antibodies: anti-Iba1(1:100, ab178847, Abcam, Cambridge, UK) or anti-GFAP (1:100, bs-0199R, Bioss) at4 °C. […]

synaptophysin, PSD95 = experiment: Synaptophysin and PSD95 co-immunofluorescence and western blot, hippocampus; type: in vivo, APP/PS1 mice
Procedure: as §1
The fixed hemibrains were paraffin-embedded and sectioned in the coronal plane. The slices were deparaffinized with xylene and rehydrated by a series of gradient alcohols. Antigen retrieval through microwave boiling was performed with 10 mM sodium citrate solution at pH 6.0. The slices were cooled down to room temperature and then rinsed in PBS solution. […]
Frozen hippocampus and cortex were homogenized in pre-cooling RIPA buffer (P0013B, Beyotime) supplemented with 1 mM phenylmethanesulfonyl fluoride (PMSF) and cocktail of protease and phosphatase inhibitors. […] Densitometric analysis was performed using Quantity One software (Bio-Rad, Berkeley, CA, United States).
Briefly, for ACh assay, the reactions were started by adding 100 µL of the Amplex Red reagent, HRP, choline oxidase, AChE working solution to each microplate well containing the controls and samples. […] Assay plates were incubated at room temperature for 30 min and protected from light, followed by detecting fluorescence of resorufin (λex = 544 nm, λem = 590 nm) in a fluorescence microplate reader. […]

TNF-α, IL-6, IL-1β = experiment: ELISA of proinflammatory cytokines, APP/PS1 mice; type: in vivo; conditions: TBS fraction, AP5 40 mg/kg once daily 5 months
Procedure: as §1, §2

CCN(C)C(=O)Oc1cccc(/C=C2\Cc3cc(OC)c(OC)cc3C2=O)c1 [AP5, (E)-3-((5,6-dimethoxy-1-oxo-1,3-dihydro-2H-inden-2-ylidene)-methyl)phenylethyl(methyl)carbamate]
Aβ40 and Aβ42 in TBS-fraction (Aβ40 and Aβ42): no marked differences | concentration of insoluble Aβ40 in FA-fractions (Aβ40 and Aβ42): markedly decreased | concentration of insoluble Aβ42 in FA-fractions (Aβ40 and Aβ42): markedly decreased | proportion of activated microglia phenotype (Iba1+ microglia): marked decrease | pre-, post- and double-positive synaptic puncta (synapse damage) (synaptophysin, PSD95; synaptophysin and PSD95 co-immunofluorescence, hippocampus CA3): markedly recovered | expression levels of synaptophysin and PSD95 (synaptophysin, PSD95; western blot, hippocampus): more than that in the APP/PS1 mice | IL-1β level (TNF-α, IL-6, IL-1β): markedly reduced | IL-6 level (TNF-α, IL-6, IL-1β): markedly reduced | TNF-α level (TNF-α, IL-6, IL-1β): markedly reduced
